Reference: patent US20250084095A1, “Aminopyrimidine Derivatives as Cyclin-Dependent Kinase Inhibitors” (Accutar Biotechnology Inc., priority 2023, published 2025)

Experiments:
[1] = tested on: Phospho-Rb (Ser807/811) in SW1573-CDK6 KO cells; test: Phospho-Rb expression inhibition in SW1573-CDK6 KO cells quantified by in cell Western; format: cell-based; conditions: Homo sapiens, 24 hours, read-out: SW1573 CDK6 KO pRb IC50
Protocol: (§1) Parental SW1573 cells were obtained from the American Type Culture Collection (ATCC). CDK4 or CDK6 gene in […] cells was knocked out using the CRISPR-Cas9 technology. First, gRNA complex of CDK4 or CDK6 was prepared with Alt-R CRISPR-Cas9 tracrRNA and crRNA CDK4 (5′-[…]-3′ (SEQ ID NO: 4)) or CDK6 (5′-[…]-3′ (SEQ ID NO. 5)) (IDT-Integrated DNA Technologies), and then ribonucleoprotein (RNP) complex of CDK4 or CDK6 was prepared with respective gRNA complex and Alt-R S.p. Cas9 Nuclease V3 (IDT-Integrated DNA Technologies). Next, 5×10^4/10 μL SWJ1573 cells were electroporated with the CDK4 or CDK6 RNP complex and Alt-R Cas9 Electroporation Enhancer using Neon Transfection System (Thermo Fisher). Cells were then plated in a 96-well plate to select single clones for validation of CDK4 or CDK6 knockout by western blot analysis.
(§2) MCF7 cells were obtained from American Type Culture Collection (ATCC, HTB-22). SW1573-CDK6 KO and SW1573-CDK4 KO cells were generated by the CRISPR-Cas9 technology. All cells were plated in 96-well plates (VWR #10062-900, or Corning #3904) in 90 uL culture medium at a density of 20,000 cells/well in the respective growth medium containing 10% FBS and 1% Penicillin Streptomycin, and then incubated at 37° C. overnight. The following day, the test compound was administered to the cells by using 1000× compound stock solution prepared in DMSO at various concentrations. 1000× compound stock solution was first diluted in culturing medium to 10×, then 10 uL compound medium was added to each well in the cell plates. After administration of the compound, the cells were then incubated at 37° C. for 24 hours. Upon completion, the cells were washed with PBS briefly. 150 uL/well of 4% formaldehyde was added and the plates were incubated at room temperature for 20 mins. The cells were washed with PBS briefly, and permeabilized with 150 uL/well of ice cold 100% methanol for 10 mins. The cells were washed with PBS briefly and blocked with 100 uL/well LI-COR blocking buffer for 1 hr at room temperature with gentle shaking. The cells were incubated overnight at 4° C. with 50 uL primary antibody rabbit anti-Phospho-Rb (Ser807/811) (1: 500, Cell Signaling, #8516) and anti-Rb (1:200, Santa Cruz, sc-73598) diluted in Intercept Blocking Buffer (LI-COR, #927-60001) containing 0.1% Tween 20. The next day, the cells were washed with 200 uL PBS containing 0.1% Tween 20, 5×5 mins at room temperature with gentle shaking, and incubated with 50 uL secondary antibody, IRDye® 800CW Goat anti-Rabbit IgG (1:1000, LI-COR, #926-32211) and IRDye®680RD Goat anti-Mouse IgG (1:1000, LI-COR, #926-68070), in LI-COR blocking buffer with 0.2% Tween 20 for 1 hr at room temperature with gentle shaking. The cells were washed with 200 uL PBS containing 0.1% Tween 20, 5×5 mins at room temperature with gentle shaking. The cells were washed with PBS for 5 mins. 100 uL fresh PBS was added to each well and the plates were imaged on a LI-COR Odyssey CLX plate reader.

[2] = tested on: Phospho-Rb (Ser807/811) in SW1573-CDK4 KO cells; test: Phospho-Rb expression inhibition in SW1573-CDK4 KO cells quantified by in cell Western; format: cell-based; conditions: Homo sapiens, 24 hours, read-out: SW1573 CDK4 KO pRb IC50
Protocol: as §1, §2

Structure (SMILES)	IC50 [1]	IC50 [2]
Cc1c(C(C)(C)O)cnc2c(F)cc(-c3nc(N[C@@H]4C[C@H]5CO[C@H](O5)[C@H]4O)ncc3F)cc12 [Compound 256, (1S,3R,4S,5R)-3-((5-fluoro-4-(8-fluoro-3-(2-hydroxypropan-2-yl)-4-methylquinolin-6-yl)pyrimidin-2-yl)amino)-6,8-dioxabicyclo[3.2.1]octan-4-ol]	≤ 40 nM	> 1000 nM
Cc1c(-c2nc(N[C@@H]3C[C@H]4CO[C@H](O4)[C@H]3O)ncc2Cl)sc2c(Cl)c(C(C)(C)O)cnc12 [Compound 275, (1S,3R,4S,5R)-3-((5-chloro-4-(7-chloro-6-(2-hydroxypropan-2-yl)-3-methylthieno[3,2-b]pyridin-2-yl)pyrimidin-2-yl)amino)-6,8-dioxabicyclo[3.2.1]octan-4-ol]	40 to 150 nM	> 1000 nM
Cc1c(-c2nc(N[C@@H]3C[C@H]4CO[C@H](O4)[C@H]3O)ncc2Cl)sc2c(C)c(C(C)(C)O)cnc12 [Compound 277, (1S,3R,4S,5R)-3-((5-chloro-4-(6-(2-hydroxypropan-2-yl)-3,7-dimethylthieno[3,2-b]pyridin-2-yl)pyrimidin-2-yl)amino)-6,8-dioxabicyclo[3.2.1]octan-4-ol]	≤ 40 nM	> 1000 nM
CC(C)(O)c1cnc2c(F)cc(-c3nc(N[C@@H]4C[C@H]5CO[C@H](O5)[C@H]4O)ncc3F)cc2c1Cl [Compound 255, (1S,3R,4S,5R)-3-((4-(4-chloro-8-fluoro-3-(2-hydroxypropan-2-yl)quinolin-6-yl)-5-fluoropyrimidin-2-yl)amino)-6,8-dioxabicyclo[3.2.1]octan-4-ol]	≤ 40 nM	> 1000 nM
Cc1c(-c2nc(N[C@@H]3C[C@H]4CO[C@H](O4)[C@H]3O)ncc2Cl)sc2c(C(C)C)cnnc12 [Compound 259, (1S,3R,4S,5R)-3-((5-chloro-4-(4-isopropyl-7-methylthieno[3,2-c]pyridazin-6-yl)pyrimidin-2-yl)amino)-6,8-dioxabicyclo[3.2.1]octan-4-ol]	≤ 40 nM	150 to 1000 nM
Cc1c(C)n(C(C)C)c2cc(-c3nc(N[C@@H]4C[C@H]5CO[C@H](O5)[C@H]4O)ncc3Cl)ccc2c1=O [Compound 191, 7-(5-chloro-2-(((1S,3R,4S,5R)-4-hydroxy-6,8-dioxabicyclo[3.2.1]octan-3-yl)amino)pyrimidin-4-yl)-1-isopropyl-2,3-dimethylquinolin-4(1H)-one]	150 to 1000 nM	> 1000 nM
CC(C)n1c(CN2[C@@H](C)COC[C@@H]2C)cc(=O)c2ccc(-c3nc(N[C@@H]4C[C@H]5CO[C@H](O5)[C@H]4O)ncc3Cl)cc21 [Compound 205, 7-(5-chloro-2-(((1S,3R,4S,5R)-4-hydroxy-6,8-dioxabicyclo[3.2.1]octan-3-yl)amino)pyrimidin-4-yl)-2-(((3S,5S)-3,5-dimethylmorpholino)methyl)-1-isopropylquinolin-4(1H)-one]	40 to 150 nM	> 1000 nM
Cc1c(CN2[C@@H](C)COC[C@@H]2C)n(C(C)C)c2cc(-c3nc(N[C@@H]4C[C@H]5CO[C@H](O5)[C@H]4O)ncc3Cl)ccc2c1=O [Compound 206, 7-(5-chloro-2-(((1S,3R,4S,5R)-4-hydroxy-6,8-dioxabicyclo[3.2.1]octan-3-yl)amino)pyrimidin-4-yl)-2-(((3S,5S)-3,5-dimethylmorpholino)methyl)-1-isopropyl-3-methylquinolin-4(1H)-one]	≤ 40 nM	150 to 1000 nM
Cc1c(CN(C)C)n(C(C)C)c2cc(-c3nc(N[C@@H]4C[C@H]5CO[C@H](O5)[C@H]4O)ncc3F)ccc2c1=O [Compound 195, 2-((dimethylamino)methyl)-7-(5-fluoro-2-(((1S,3R,4S,5R)-4-hydroxy-6,8-dioxabicyclo [3.2.1]octan-3-yl)amino)pyrimidin-4-yl)-1-isopropyl-3-methylquinolin-4(1H)-one]	≤ 40 nM	> 1000 nM

Now from value to molecule:

IC50 [1]	IC50 [2]	Structure (SMILES)
≤ 40 nM	150 to 1000 nM	Cc1c(CN2[C@@H](C)COC[C@@H]2C)n(C(C)C)c2cc(-c3nc(N[C@@H]4C[C@H]5CO[C@H](O5)[C@H]4O)ncc3F)ccc2c1=O [Compound 199, 2-(((3S,5S)-3,5-dimethylmorpholino)methyl)-7-(5-fluoro-2-(((1S,3R,4S,5R)-4-hydroxy-6,8-dioxabicyclo[3.2.1]octan-3-yl)amino)pyrimidin-4-yl)-1-isopropyl-3-methylquinolin-4(1H)-one]
≤ 40 nM	150 to 1000 nM	Cc1c(-c2nc(N[C@@H]3C[C@H]4CO[C@H](O4)[C@H]3O)ncc2F)sc2c(Cl)c(C(C)(C)O)cnc12 [Compound 276, (1S,3R,4S,5R)-3-((4-(7-chloro-6-(2-hydroxypropan-2-yl)-3-methylthieno[3,2-b]pyridin-2-yl)-5-fluoropyrimidin-2-yl)amino)-6,8-dioxabicyclo[3.2.1]octan-4-ol]
≤ 40 nM	40 to 150 nM	Cc1c(-c2nc(N[C@@H]3C[C@H]4CO[C@H](O4)[C@H]3O)ncc2Cl)sc2c(C(C)C)cn(C)c(=O)c12 [Compound 223, 2-(5-chloro-2-(((1S,3R,4S,5R)-4-hydroxy-6,8-dioxabicyclo[3.2.1]octan-3-yl)amino)pyrimidin-4-yl)-7-isopropyl-3,5-dimethylthieno[3,2-c]pyridin-4(5H)-one]
≤ 40 nM	150 to 1000 nM	Cc1c(CN2CC[C@H](F)C2)n(C(C)C)c2cc(-c3nc(N[C@@H]4C[C@H]5CO[C@H](O5)[C@H]4O)ncc3F)ccc2c1=O [Compound 293, 7-(5-fluoro-2-(((1S,3R,4S,5R)-4-hydroxy-6,8-dioxabicyclo[3.2.1]octan-3-yl)amino)pyrimidin-4-yl)-2-(((S)-3-fluoropyrrolidin-1-yl)methyl)-1-isopropyl-3-methylquinolin-4(1H)-one]
40 to 150 nM	> 1000 nM	CNCc1c(C)c(=O)c2ccc(-c3nc(N[C@@H]4C[C@H]5CO[C@H](O5)[C@H]4O)ncc3F)cc2n1C(C)C [Compound 194, 7-(5-fluoro-2-(((1S,3R,4S,5R)-4-hydroxy-6,8-dioxabicyclo[3.2.1]octan-3-yl)amino)pyrimidin-4-yl)-1-isopropyl-3-methyl-2-((methylamino)methyl)quinolin-4(1H)-one]
≤ 40 nM	> 1000 nM	Cc1nc2c(F)cc(-c3nc(N[C@@H]4C[C@H]5CO[C@H](O5)[C@H]4O)ncc3Cl)cc2n1C(C)C [Compound 25, (1S,3R,4S,5R)-3-((5-chloro-4-(4-fluoro-1-isopropyl-2-methyl-1H-benzo[d]imidazol-6-yl)pyrimidin-2-yl)amino)-6,8-dioxabicyclo[3.2.1]octan-4-ol]
40 to 150 nM	> 1000 nM	CC(C)n1c(CN2[C@@H](C)COC[C@@H]2C)c(F)c(=O)c2ccc(-c3nc(N[C@@H]4C[C@H]5CO[C@H](O5)[C@H]4O)ncc3Cl)cc21 [Compound 201, 7-(5-chloro-2-(((1S,3R,4S,5R)-4-hydroxy-6,8-dioxabicyclo[3.2.1]octan-3-yl)amino)pyrimidin-4-yl)-2-(((3S,5S)-3,5-dimethylmorpholino)methyl)-3-fluoro-1-isopropylquinolin-4(1H)-one]
40 to 150 nM	> 1000 nM	Cc1c(CN2CC(F)C2)n(C(C)C)c2cc(-c3nc(N[C@@H]4C[C@H]5CO[C@H](O5)[C@H]4O)ncc3F)ccc2c1=O [Compound 197, 7-(5-fluoro-2-(((1S,3R,4S,5R)-4-hydroxy-6,8-dioxabicyclo[3.2.1]octan-3-yl)amino)pyrimidin-4-yl)-2-((3-fluoroazetidin-1-yl)methyl)-1-isopropyl-3-methylquinolin-4(1H)-one]
≤ 40 nM	150 to 1000 nM	Cc1c(-c2nc(N[C@@H]3C[C@H]4CO[C@H](O4)[C@H]3O)ncc2C(F)F)sc2c(C(C)C)cn(C)c(=O)c12 [Compound 227, 2-(5-(difluoromethyl)-2-(((1S,3R,4S,5R)-4-hydroxy-6,8-dioxabicyclo[3.2.1]octan-3-yl)amino)pyrimidin-4-yl)-7-isopropyl-3,5-dimethylthieno[3,2-c]pyridin-4(5H)-one]
